# In patent US20040063662A1, “Selenophene anti-tumor agents” (priority 1996, published 2004):
# Columns and labels:
# K-562 = assay: NCI human tumor cell panel: K-562 (Leukemia); format: cell-based; settings: K562, K-562, Leukemia
# MOLT-4 = assay: NCI human tumor cell panel: MOLT-4 (Leukemia); format: cell-based; settings: MOLT-4, Leukemia
# SR = assay: NCI human tumor cell panel: SR (Leukemia); format: cell-based; settings: Leukemia
# A549/ATCC = assay: NCI human tumor cell panel: A549/ATCC (Non-Small Cell Lung Cancer); format: cell-based; settings: Non-Small Cell Lung Cancer
# EKVX = assay: NCI human tumor cell panel: EKVX (Non-Small Cell Lung Cancer); format: cell-based; settings: Non-Small Cell Lung Cancer
# HOP-62 = assay: NCI human tumor cell panel: HOP-62 (Non-Small Cell Lung Cancer); format: cell-based; settings: HOP-62, Non-Small Cell Lung Cancer
# NCI-H23 = assay: NCI human tumor cell panel: NCI-H23 (Non-Small Cell Lung Cancer); format: cell-based; settings: NCI-H23, Non-Small Cell Lung Cancer
# NCI-H460 = assay: NCI human tumor cell panel: NCI-H460 (Non-Small Cell Lung Cancer); format: cell-based; settings: NCI-H460, Non-Small Cell Lung Cancer
# HCT-116 = assay: NCI human tumor cell panel: HCT-116 (Colon Cancer); format: cell-based; settings: HCT-116, Colon Cancer
# HCT-15 = assay: NCI human tumor cell panel: HCT-15 (Colon Cancer); format: cell-based; settings: HCT-15, Colon Cancer
# HT29 = assay: NCI human tumor cell panel: HT29 (Colon Cancer); format: cell-based; settings: HT-29, HT29, Colon Cancer
# KM12 = assay: NCI human tumor cell panel: KM12 (Colon Cancer); format: cell-based; settings: KM12, Colon Cancer
# SW-620 = assay: NCI human tumor cell panel: SW-620 (Colon Cancer); format: cell-based; settings: SW-620, Colon Cancer
# SF-295 = assay: NCI human tumor cell panel: SF-295 (CNS Cancer); format: cell-based; settings: SF-295, CNS Cancer
# SNB-75 = assay: NCI human tumor cell panel: SNB-75 (CNS Cancer); format: cell-based; settings: SNB-75, CNS Cancer
# LOX IMVI = assay: NCI human tumor cell panel: LOX IMVI (Melanoma); format: cell-based; settings: Melanoma
# MALME-3M = assay: NCI human tumor cell panel: MALME-3M (Melanoma); format: cell-based; settings: MALME-3M, Melanoma
# UACC-257 = assay: NCI human tumor cell panel: UACC-257 (Melanoma); format: cell-based; settings: UACC-257, Melanoma
# UACC-62 = assay: NCI human tumor cell panel: UACC-62 (Melanoma); format: cell-based; settings: UACC-62, Melanoma
# IGROV1 = assay: NCI human tumor cell panel: IGROV1 (Ovarian Cancer); format: cell-based; settings: IGROV-1, IGROV1, Ovarian Cancer
# OVCAR-4 = assay: NCI human tumor cell panel: OVCAR-4 (Ovarian Cancer); format: cell-based; settings: OVCAR-4, Ovarian Cancer
# OVCAR-5 = assay: NCI human tumor cell panel: OVCAR-5 (Ovarian Cancer); format: cell-based; settings: OVCAR-5, Ovarian Cancer
# OVCAR-8 = assay: NCI human tumor cell panel: OVCAR-8 (Ovarian Cancer); format: cell-based; settings: OVCAR-8, Ovarian Cancer
# 786-0 = assay: NCI human tumor cell panel: 786-0 (Renal Cancer); format: cell-based; settings: 786-0, Renal Cancer
# A498 = assay: NCI human tumor cell panel: A498 (Renal Cancer); format: cell-based; settings: A498, Renal Cancer
# ACHN = assay: NCI human tumor cell panel: ACHN (Renal Cancer); format: cell-based; settings: Renal Cancer
# SN12C = assay: NCI human tumor cell panel: SN12C (Renal Cancer); format: cell-based; settings: Renal Cancer
# TK-10 = assay: NCI human tumor cell panel: TK-10 (Renal Cancer); format: cell-based; settings: TK-10, Renal Cancer
# PC-3 = assay: NCI human tumor cell panel: PC-3 (Prostate Cancer); format: cell-based; settings: PC-3, Prostate Cancer
# MCF7/ADR-RES = assay: NCI human tumor cell panel: MCF7/ADR-RES (Breast Cancer); format: cell-based; settings: Breast Cancer
# HS 578T = assay: NCI human tumor cell panel: HS 578T (Breast Cancer); format: cell-based; settings: Breast Cancer
# BT-549 = assay: NCI human tumor cell panel: BT-549 (Breast Cancer); format: cell-based; settings: BT-549, Breast Cancer
# HOP-92 = assay: NCI human tumor cell panel: HOP-92 (Non-Small Cell Lung Cancer)
# [1] = read-out: Log10 GI50 (converted)
# [2] = read-out: Log10 TGI (converted)
compound,measurement,setting,value
O=Cc1ccc(-c2ccc(-c3ccc(C=O)[se]3)[se]2)[se]1 [NSC 675245],GI50,K-562; [1],6.76 µM
same,IC (TGI),K-562; [2],> 100 µM
same,GI50,MOLT-4; [1],> 100 µM
same,IC (TGI),MOLT-4; [2],> 100 µM
same,GI50,SR; [1],> 100 µM
same,IC (TGI),SR; [2],> 100 µM
same,GI50,A549/ATCC; [1],> 100 µM
same,IC (TGI),A549/ATCC; [2],> 100 µM
same,GI50,EKVX; [1],> 100 µM
same,IC (TGI),EKVX; [2],> 100 µM
same,GI50,HOP-62; [1],51.3 µM
same,IC (TGI),HOP-62; [2],> 100 µM
same,GI50,NCI-H23; [1],> 100 µM
same,IC (TGI),NCI-H23; [2],> 100 µM
same,GI50,NCI-H460; [1],1.78 µM
same,IC (TGI),NCI-H460; [2],> 100 µM
same,GI50,HCT-116; [1],0.692 µM
same,IC (TGI),HCT-116; [2],> 100 µM
same,GI50,HCT-15; [1],> 100 µM
same,IC (TGI),HCT-15; [2],> 100 µM
same,GI50,HT29; [1],> 100 µM
same,IC (TGI),HT29; [2],> 100 µM
same,GI50,KM12; [1],> 100 µM
same,IC (TGI),KM12; [2],> 100 µM
same,GI50,SW-620; [1],4.17 µM
same,IC (TGI),SW-620; [2],> 100 µM
same,GI50,SF-295; [1],49 µM
same,IC (TGI),SF-295; [2],> 100 µM
same,GI50,SNB-75; [1],10 µM
same,IC (TGI),SNB-75; [2],> 100 µM
same,GI50,LOX IMVI; [1],> 100 µM
same,IC (TGI),LOX IMVI; [2],> 100 µM
same,GI50,MALME-3M; [1],> 100 µM
same,IC (TGI),MALME-3M; [2],> 100 µM
same,GI50,UACC-257; [1],0.324 µM
same,IC (TGI),UACC-257; [2],0.912 µM
same,GI50,UACC-62; [1],0.0646 µM
same,IC (TGI),UACC-62; [2],> 100 µM
same,GI50,IGROV1; [1],67.6 µM
same,IC (TGI),IGROV1; [2],25.7 µM
same,GI50,OVCAR-4; [1],2.63 µM
same,IC (TGI),OVCAR-4; [2],> 100 µM
same,GI50,OVCAR-5; [1],0.776 µM
same,IC (TGI),OVCAR-5; [2],> 100 µM
same,GI50,OVCAR-8; [1],> 100 µM
same,IC (TGI),OVCAR-8; [2],> 100 µM
same,GI50,786-0; [1],67.6 µM
same,IC (TGI),786-0; [2],> 100 µM
same,GI50,A498; [1],0.309 µM
same,IC (TGI),A498; [2],0.891 µM
same,GI50,ACHN; [1],57.5 µM
same,IC (TGI),ACHN; [2],> 100 µM
same,GI50,SN12C; [1],> 100 µM
same,IC (TGI),SN12C; [2],> 100 µM
same,GI50,TK-10; [1],0.257 µM
same,IC (TGI),TK-10; [2],0.813 µM
same,GI50,PC-3; [1],> 100 µM
same,IC (TGI),PC-3; [2],> 100 µM
same,GI50,MCF7/ADR-RES; [1],> 100 µM
same,IC (TGI),MCF7/ADR-RES; [2],> 100 µM
same,GI50,HS 578T; [1],87.1 µM
same,IC (TGI),HS 578T; [2],> 100 µM
same,GI50,BT-549; [1],> 100 µM
same,IC (TGI),BT-549; [2],> 100 µM
same,GI50,"HOP-92; HOP-92, read-out: Log10 GI50 (converted)",> 100 µM
same,IC (TGI),"HOP-92; HOP-92, read-out: Log10 TGI",> 100 µM
